Data from the supplement of paper PMC10307832.

Assays:
Assay in all cases: relative viability (nuclei count vs DMSO), 5 days (fraction); higher = more cells survive
[1] = compound: CNC(=O)c1ccccc1Sc1ccc2c(/C=C/c3ccccn3)n[nH]c2c1 [Axitinib] + Nc1nc2[nH]cc(CCc3ccc(C(=O)N[C@@H](CCC(=O)O)C(=O)O)cc3)c2c(=O)[nH]1 [Pemetrexed] (partner 0.2 µM)
How it was run: (§1)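 Values are medians from duplicate plates. Each reflects relative viability, defined as the nuclei count of treated wells over that of vehicle wells. Lung cancer cell lines in 1536-well plates were pin-tool dosed one day after seeding with one drug alone or with a fixed anchor-drug dose plus five library-drug doses (not always all listed) in √10 steps, then fixed, stained and imaged at 4× after 5 days.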

[2] = compound: CC1=CC=C(C=C1)C(=O)CN2C3=C(CCCC3)SC2=N [Pifithrin_alpha] + O=C(c1cc(Cc2n[nH]c(=O)c3ccccc23)ccc1F)N1CCN(C(=O)C2CC2)CC1 [Olaparib] (partner 8 µM)
How it was run: as §1

[3] = compound: CNC(=O)c1ccccc1Sc1ccc2c(/C=C/c3ccccn3)n[nH]c2c1 [Axitinib] + O=C(c1cc(Cc2n[nH]c(=O)c3ccccc23)ccc1F)N1CCN(C(=O)C2CC2)CC1 [Olaparib] (partner 8 µM)
How it was run: as §1

[4] = compound: CNC(=O)c1ccccc1Sc1ccc2c(/C=C/c3ccccn3)n[nH]c2c1 [Axitinib] + N=C(N)NC(=N)NCCc1ccccc1 [Phenformin] (partner 250 µM)
How it was run: as §1

Cell Line	relative viability ([1]; first compound 0.005 µM)	relative viability ([1]; first compound 0.01581 µM)	relative viability ([1]; first compound 0.05 µM)	relative viability ([1]; first compound 0.1581 µM)	relative viability ([1]; first compound 0.5 µM)	relative viability ([2]; first compound 1 µM)	relative viability ([2]; first compound 3.162 µM)	relative viability ([2]; first compound 10 µM)	relative viability ([2]; first compound 31.62 µM)	relative viability ([2]; first compound 100 µM)	relative viability ([3]; first compound 0.005 µM)	relative viability ([3]; first compound 0.01581 µM)	relative viability ([3]; first compound 0.05 µM)	relative viability ([3]; first compound 0.1581 µM)	relative viability ([3]; first compound 0.5 µM)	relative viability ([4]; first compound 0.005 µM)	relative viability ([4]; first compound 0.01581 µM)	relative viability ([4]; first compound 0.05 µM)	relative viability ([4]; first compound 0.1581 µM)	relative viability ([4]; first compound 0.5 µM)
SK-MES-1	0.949	1.03	1.02	1.04	1.04	0.479	0.493	0.292	0.241	0.373	0.775	0.829	0.711	0.833	1.02	0.65	0.653	0.654	0.631	0.738
NCI-H1648	0.726	0.764	0.702	0.958	0.758	1.1	0.741	0.963	0.619	0.682	0.616	0.975	0.554	0.979	0.958					
PC-3 [JPC-3]	0.963		1.32	1.06	1.16		1.11		0.564	0.764	1.16		1.19	1.12	1.44	0.491	0.445	0.493	0.507	0.539
NCI-H1666	0.865	0.972	0.899	0.958	0.873	0.72	0.673	0.657	0.641	0.648	0.741	0.756	0.7	0.765	0.728	0.588	0.559	0.552	0.586	0.502
IA-LM						0.758	0.699	0.332	0.192	0.271	1.07	0.855	0.821	0.808	0.832					
HCC-78	0.919	0.941	0.933	0.974	0.962		0.925	0.785	0.51	0.683	0.925	0.814	0.674	0.776	0.813	0.67	0.667	0.752	0.657	0.474
HCC-366	0.151	0.168	0.182	0.208	0.224	0.344	0.238	0.299		0.209	0.362	0.33	0.422	0.304	0.37	0.689	0.615	0.631	0.553	0.653
NCI-H520	0.68	0.698	0.74	0.681	0.716	0.319	0.286	0.317	0.301	0.292	0.342	0.345	0.361	0.251	0.368	0.489	0.404	0.655	0.362	0.386
NCI-H1355	1.01	1.03	1.09	1.03	1.01	0.653	0.52	0.413	0.442	0.345	0.756	0.769	0.729	0.723	0.77	0.457	0.46	0.497	0.44	0.43
SW 1573	0.841	0.777	0.928	0.77	0.816	0.493	0.466	0.413		0.342	0.502	0.595	0.55	0.417	0.507	0.465	0.37	0.398	0.295	0.408
COR-L 105	1.14	1.09	1.05	1.25	1.26	0.489	0.426	0.477	0.425	0.447	0.805	0.721	0.647	0.962	0.797	0.605	0.4	0.527	0.388	0.547
COR-L23	0.197	0.201	0.194	0.192	0.21	0.262	0.306	0.267		0.269	0.367	0.376	0.326	0.363	0.387	0.458	0.417	0.428	0.419	0.485
NCI-H322M	0.586	0.691	0.679	0.628	0.627	0.74	0.715	0.723	0.468	0.559	0.965	0.849	0.753	0.724	1.06	0.886	0.754	0.812	0.712	0.989
NCI-H2347	0.443	0.39	0.441	0.458	0.446	0.603	0.573	0.587	0.541	0.547	0.592	0.629	0.575	0.65	0.557	0.454	0.405	0.529	0.393	0.259
RERF-LC-KJ	0.435	0.443	0.485	0.491	0.502	0.779	0.4	0.215	0.178	0.175	1.1	0.853	0.964	0.81	0.951	0.462	0.445	0.396	0.457	0.458
NCI-H2228	0.335	0.306	0.307	0.374	0.341	0.681	0.634	0.605	0.647	0.549	0.636	0.706	0.713	0.466	0.91	0.324	0.326	0.412	0.36	0.269
A549							0.473	0.338	0.175	0.276	0.471	0.36	0.373	0.327	0.412	0.204	0.198	0.217	0.149	0.216
